Laboratory results taken from patent US12435087B2, “Modulators of DCN-1 and methods of use thereof” (Cellarity, Inc., priority 2023, dated 2025).
Like-named read-outs stand apart in the source and are kept apart here.

Molecular target: DCN1 (DCUND1) protein PONY domain (Homo sapiens (Human), UniProt Q96GG9)
Assay: TR-FRET assay (binding to DCN-1, displacement of FAM-labeled probe)
How it was run: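 Compounds read at 1, 5 and 24 h, 0.1% final DMSO, by TR-FRET between terbium-streptavidin on biotinylated DCN1 PONY domain (E. coli) and a FAM-tagged non-covalent inhibitor probe. Two setups used, 5 nM protein with 20 nM labelled probe, or 0.31 nM protein with 100 nM labelled plus 800 nM unlabelled probe; buffer had TritonX and 200 mM NaCl. % activity relative to high (with probe) and low (without probe) controls.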

[1] = 24 hr after treatment with compound, read-out: TR FRET IC50 24 hr
[2] = TR FRET IC50 1 hr (nM), 1 hr after treatment with compound
[3] = read-out: TR FRET IC50 1 hr, 1 hr after treatment with compound

Sequence of DCN1 (DCUND1) protein PONY domain (Q96GG9 60-248): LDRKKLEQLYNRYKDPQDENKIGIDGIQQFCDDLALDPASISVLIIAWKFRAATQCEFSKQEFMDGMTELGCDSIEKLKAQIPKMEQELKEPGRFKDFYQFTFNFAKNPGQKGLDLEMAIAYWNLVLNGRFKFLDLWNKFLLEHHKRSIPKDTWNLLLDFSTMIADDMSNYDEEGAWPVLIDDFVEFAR

C=C(CN1CCN(C2COC2)CC1)C(=O)NCc1cccc([C@@H]2c3c(C)nn(-c4ccccc4)c3N(CC)C(=O)[C@H]2NC(=O)c2cccc(C(F)(F)F)c2)c1 (stereo in doubt) [Compound I-252]
IC50 [1]: ≤ 200 nM | IC50 [2]: 1000 to 3000 nM

C=C(CN1CC2CC1CO2)C(=O)NCc1cccc([C@@H]2c3cnn(-c4ccccc4)c3N(CC)C(=O)[C@H]2NC(=O)c2cccc(C(F)(F)F)c2)c1 (stereo partly shown) [Compound I-7]
IC50 [1]: ≤ 200 nM | IC50 [3]: ≤ 200 nM

C=C(CN1C2COCC1C2)C(=O)NCc1cccc([C@@H]2c3cnn(-c4ccccc4)c3N(CC)C(=O)[C@H]2NC(=O)c2cccc(C(F)(F)F)c2)c1 [Compound I-8]
IC50 [1]: ≤ 200 nM | IC50 [3]: ≤ 200 nM

C=C(CN1CCC(C)(O)C1)C(=O)NCc1cccc([C@@H]2c3cnn(-c4ccccc4)c3N(CC)C(=O)[C@H]2NC(=O)c2cccc(C(F)(F)F)c2)c1 (stereo partly drawn) [Compound I-10, N-((4R,5S)-7-ethyl-4-(3-((2-((3-hydroxy-3-methylpyrrolidin-1-yl)methyl)acrylamido)methyl)phenyl)-6-oxo-1-phenyl-4,5,6,7-tetrahydro-1H-pyrazolo[3,4-b]pyridin-5-yl)-3-(trifluoromethyl)benzamide]
IC50 [1]: ≤ 200 nM | IC50 [3]: ≤ 200 nM

C=C(CN1CC2(CCOC2)C1)C(=O)NCc1cccc([C@@H]2c3cnn(-c4ccccc4)c3N(CC)C(=O)[C@H]2NC(=O)c2cccc(C(F)(F)F)c2)c1 [Compound I-12]
IC50 [1]: ≤ 200 nM | IC50 [3]: ≤ 200 nM

C=C(CN1CC2CC1C2)C(=O)NCc1cccc([C@@H]2c3cnn(-c4ccccc4)c3N(CC)C(=O)[C@H]2NC(=O)c2cccc(C(F)(F)F)c2)c1 [Compound I-13]
IC50 [1]: ≤ 200 nM | IC50 [3]: ≤ 200 nM

CCN1C(=O)[C@@H](NC(=O)c2cccc(C(F)(F)F)c2)[C@H](c2ccc(F)c(NC(=O)/C=C/CN(C)C)c2)c2cnn(-c3ccccc3)c21 [Compound I-32]
IC50 [1]: ≤ 200 nM | IC50 [2]: 1000 to 3000 nM

CCN1C(=O)[C@@H](NC(=O)c2cccc(C(F)(F)F)c2)[C@H](c2cccc(CNC(=O)C3=CCCN(C)C3)c2)c2cnn(-c3ccccc3)c21 [Compound I-33]
IC50 [1]: 1000 to 3000 nM | IC50 [2]: 1000 to 3000 nM

CCN1C(=O)[C@@H](NC(=O)c2nccc(C(F)(F)F)n2)[C@H](c2cccc(NC(=O)C3=CCN(C)C3)c2)c2c(C)nn(-c3ccccc3)c21 [Compound I-37]
IC50 [1]: ≤ 200 nM | IC50 [3]: ≤ 200 nM

C=C(CN1CCOCC1)C(=O)NCc1cccc([C@H]2c3cnn(-c4ccccc4)c3N(CC)C(=O)[C@@H]2NC(=O)c2nccc(C(F)(F)F)n2)c1 [Compound I-43]
IC50 [1]: 1000 to 3000 nM | IC50 [2]: 1000 to 3000 nM

C=C(CC(=O)OC)C(=O)NCc1cccc([C@@H]2c3cnn(-c4ccccc4)c3N(CC)C(=O)[C@H]2NC(=O)c2cccc(C(F)(F)F)c2)c1 [Compound I-50]
IC50 [1]: ≤ 200 nM | IC50 [2]: 1000 to 3000 nM

CCN1C(=O)[C@@H](NC(=O)c2cccc(C(F)(F)F)c2)[C@H](c2ccccc2NC(=O)CCl)c2c(C)nn(-c3ccccc3)c21 [Compound I-52, N-((4R,5S)-4-(2-(2-chloroacetamido)phenyl)-7-ethyl-3-methyl-6-oxo-1-phenyl-4,5,6,7-tetrahydro-1H-pyrazolo[3,4-b]pyridin-5-yl)-3-(trifluoromethyl)benzamide]
IC50 [1]: ≤ 200 nM | IC50 [2]: 1000 to 3000 nM

CCN1C(=O)[C@@H](NC(=O)c2cccc(C(F)(F)F)c2)[C@H](c2cccc(CNC(=O)C3=CCN(C)C3)c2)c2cnn(-c3ccccc3)c21 [Compound I-54]
IC50 [1]: ≤ 200 nM | IC50 [2]: 1000 to 3000 nM

C=C(CC(=O)NCc1cccc([C@@H]2c3cnn(-c4ccccc4)c3N(CC)C(=O)[C@H]2NC(=O)c2cccc(C(F)(F)F)c2)c1)C(=O)OC [Compound I-57]
IC50 [1]: 1000 to 3000 nM | IC50 [2]: 1000 to 3000 nM

C=C(CN1CCC1)C(=O)NCc1cccc([C@H]2c3cnn(-c4ccccc4)c3N(CC)C(=O)[C@@H]2NC(=O)c2cccc(C(F)(F)F)c2)c1 [Compound I-59]
IC50 [1]: ≤ 200 nM | IC50 [2]: 1000 to 3000 nM

C=C(CN(C)CC1COC1)C(=O)NCc1cccc([C@@H]2c3cnn(-c4ccccc4)c3N(CC)C(=O)[C@H]2NC(=O)c2cccc(C(F)(F)F)c2)c1 [Compound I-61]
IC50 [1]: ≤ 200 nM | IC50 [3]: ≤ 200 nM

C=C(CN1CC2(CCO2)C1)C(=O)NCc1cccc([C@@H]2c3cnn(-c4ccccc4)c3N(CC)C(=O)[C@H]2NC(=O)c2cccc(C(F)(F)F)c2)c1 [Compound I-63]
IC50 [1]: ≤ 200 nM | IC50 [3]: ≤ 200 nM

CCN1C(=O)[C@@H](NC(=O)c2cccc(C(F)(F)F)c2)[C@H](c2cccc(NC(=O)C3=CCC3)c2)c2c(C)nn(-c3ccccc3)c21 [Compound I-70, N-((4R,5S)-4-(3-(cyclobut-1-ene-1-carboxamido)phenyl)-7-ethyl-3-methyl-6-oxo-1-phenyl-4,5,6,7-tetrahydro-1H-pyrazolo[3,4-b]pyridin-5-yl)-3-(trifluoromethyl)benzamide]
IC50 [1]: 200 to 1000 nM | IC50 [2]: 1000 to 3000 nM

CCN1C(=O)[C@@H](NC(=O)c2cccc(C(F)(F)F)c2)[C@H](c2cccc(CNC(=O)/C=C(\C)C(=O)OC)c2)c2cnn(-c3ccccc3)c21 [Compound I-73]
IC50 [1]: 1000 to 3000 nM | IC50 [2]: 1000 to 3000 nM

C=C(CO)C(=O)NCc1cccc([C@@H]2c3cnn(-c4ccccc4)c3N(CC)C(=O)[C@H]2NC(=O)c2cccc(C(F)(F)F)c2)c1 [Compound I-76]
IC50 [1]: 1000 to 3000 nM | IC50 [2]: 1000 to 3000 nM

C=C(CO)C(=O)NCc1cccc([C@H]2c3cnn(-c4ccccc4)c3N(CC)C(=O)[C@@H]2NC(=O)c2cccc(C(F)(F)F)c2)c1 [Compound I-87]
IC50 [1]: 1000 to 3000 nM | IC50 [2]: 1000 to 3000 nM

CCN1C(=O)[C@H](NC(=O)c2cccc(C(F)(F)F)c2)[C@@H](c2cccc(N(C)C(=O)C3=CCC3)c2)c2cnn(-c3ccccc3)c21 [Compound I-91]
IC50 [1]: 1000 to 3000 nM | IC50 [2]: 1000 to 3000 nM

C=C(CN1CCOCC1)C(=O)NCc1cccc([C@H]2c3cnn(-c4ccccc4)c3N(CC)C(=O)[C@@H]2NC(=O)c2cccc(C(F)(F)F)c2)c1 [Compound I-93]
IC50 [1]: 1000 to 3000 nM | IC50 [2]: 1000 to 3000 nM

CCN1C(=O)[C@H](NC(=O)c2cccc(C(F)(F)F)c2)[C@@H](c2cccc(NC(=O)C3=CCC3)c2)c2c(C)nn(-c3ccccc3)c21 [Compound I-94, N-((4S,5R)-4-(3-(cyclobut-1-ene-1-carboxamido)phenyl)-7-ethyl-3-methyl-6-oxo-1-phenyl-4,5,6,7-tetrahydro-1H-pyrazolo[3,4-b]pyridin-5-yl)-3-(trifluoromethyl)benzamide]
IC50 [1]: 1000 to 3000 nM | IC50 [3]: 1000 to 3000 nM

CCN1C(=O)[C@@H](NC(=O)c2cccc(C(F)(F)F)c2)[C@H](c2cccc(CNC(=O)/C(C)=C/C(=O)OC)c2)c2cnn(-c3ccccc3)c21 [Compound I-95]
IC50 [1]: 1000 to 3000 nM | IC50 [2]: 1000 to 3000 nM

C=C(CN1CC(F)(F)C1)C(=O)NCc1cccc([C@H]2c3cnn(-c4ccccc4)c3N(CC)C(=O)[C@@H]2NC(=O)c2cccc(C(F)(F)F)c2)c1 [Compound I-96]
IC50 [1]: 1000 to 3000 nM | IC50 [2]: 1000 to 3000 nM

C=C(CN1CCC(F)(F)C1)C(=O)NCc1cccc([C@H]2c3cnn(-c4ccccc4)c3N(CC)C(=O)[C@@H]2NC(=O)c2cccc(C(F)(F)F)c2)c1 [Compound I-102]
IC50 [1]: 1000 to 3000 nM | IC50 [2]: 1000 to 3000 nM

CCN1C(=O)[C@H](NC(=O)c2cccc(C(F)(F)F)c2)[C@@H](c2cccc(CNC(=O)C3=CCCN(C)C3)c2)c2cnn(-c3ccccc3)c21 [Compound I-106]
IC50 [1]: 1000 to 3000 nM | IC50 [2]: 1000 to 3000 nM

CCN1C(=O)[C@@H](NC(=O)c2cccc(C(F)(F)F)c2)[C@H](c2cccc(CNC(=O)C3=C(C(=O)OC)CCC3)c2)c2cnn(-c3ccccc3)c21 [Compound I-108]
IC50 [1]: 1000 to 3000 nM | IC50 [2]: 1000 to 3000 nM

C=C(CC(=O)NCc1cccc([C@H]2c3cnn(-c4ccccc4)c3N(CC)C(=O)[C@@H]2NC(=O)c2cccc(C(F)(F)F)c2)c1)C(=O)OC [Compound I-109]
IC50 [1]: 1000 to 3000 nM | IC50 [2]: 1000 to 3000 nM

CCN1C(=O)[C@H](NC(=O)c2cccc(C(F)(F)F)c2)[C@@H](c2ccccc2NC(=O)CCl)c2c(C)nn(-c3ccccc3)c21 [Compound I-110, N-((4S,5R)-4-(2-(2-chloroacetamido)phenyl)-7-ethyl-3-methyl-6-oxo-1-phenyl-4,5,6,7-tetrahydro-1H-pyrazolo[3,4-b]pyridin-5-yl)-3-(trifluoromethyl)benzamide]
IC50 [1]: 1000 to 3000 nM | IC50 [2]: 1000 to 3000 nM

C/C=C(\CN1CCOCC1)C(=O)NCc1cccc([C@H]2c3cnn(-c4ccccc4)c3N(CC)C(=O)[C@@H]2NC(=O)c2cccc(C(F)(F)F)c2)c1 [Compound I-115]
IC50 [1]: 1000 to 3000 nM | IC50 [2]: 1000 to 3000 nM

CCN1C(=O)[C@H](NC(=O)c2cccc(C(F)(F)F)c2)[C@@H](c2cccc(CNC(=O)/C=C(\C)C(=O)OC)c2)c2cnn(-c3ccccc3)c21 [Compound I-116]
IC50 [1]: 1000 to 3000 nM | IC50 [2]: 1000 to 3000 nM

CCN1C(=O)[C@H](NC(=O)c2cccc(C(F)(F)F)c2)[C@@H](c2cccc(CNC(=O)C3=C(C(=O)OC)CC3)c2)c2cnn(-c3ccccc3)c21 [Compound I-118]
IC50 [1]: 1000 to 3000 nM | IC50 [2]: 1000 to 3000 nM

CCN1C(=O)[C@H](NC(=O)c2cccc(C(F)(F)F)c2)[C@@H](c2cccc(CNC(=O)C3=C(C(=O)OC)CCC3)c2)c2cnn(-c3ccccc3)c21 [Compound I-119]
IC50 [1]: 1000 to 3000 nM | IC50 [2]: 1000 to 3000 nM

C=C(CC(=O)OC)C(=O)NCc1cccc([C@H]2c3cnn(-c4ccccc4)c3N(CC)C(=O)[C@@H]2NC(=O)c2cccc(C(F)(F)F)c2)c1 [Compound I-121]
IC50 [1]: 1000 to 3000 nM | IC50 [2]: 1000 to 3000 nM

CCN1C(=O)[C@H](NC(=O)c2cccc(C(F)(F)F)c2)[C@@H](c2cccc(CNC(=O)/C(C)=C/C(=O)OC)c2)c2cnn(-c3ccccc3)c21 [Compound I-125]
IC50 [1]: 1000 to 3000 nM | IC50 [2]: 1000 to 3000 nM

CCN1C(=O)[C@H](NC(=O)c2cccc(C(F)(F)F)c2)[C@@H](c2cccc(CNC(=O)C3=CCN(C)C3)c2)c2cnn(-c3ccccc3)c21 [Compound I-128]
IC50 [1]: 1000 to 3000 nM | IC50 [2]: 1000 to 3000 nM
